≈ marks a conversion by molar mass, not a printed value. Starred links: 1 amine or outer side, 2 acyl side, 3 side chain; linkers in the order of their positions; H or OH if unused. Positions of bridges follow the written chain, without caps; N, C: chain ends. Non-standard residues stand in square brackets, D forms with d. Residues, ends and D or L forms follow the SMILES beside them. *: point of attachment. X1 = CC[C@H](C)[C@@H](N[*:1])[C@@H](O)CC(=O)O[C@H](C(=O)[C@H](C)C(=O)[*:2])C(C)C; NMeY = CN[C@@H](Cc1ccc(O)cc1)C(=O)O; dNMeL = CN[C@H](CC(C)C)C(=O)O; Pyruvoyl = CC(=O)C(=O)*
Tests used:
[1] = system: L-1210 cells; experiment: Growth inhibition of L-1210 cells; format: cell-based, mouse
Description: 2.1 Assay Against L-1210 Cells (Ascetic Fluid from DBA/2mouse)
(§1) L-1210 cells were seeded into 16 mm wells at 1×10^4 cells per well in 1 mL aliquots of MEN 10C containing the indicated concentrations of drug. All determinations were carried out in triplicate. Cells were counted after three drugs was counted daily to ensure that the cells remained in exponential growth over the period of observation.

[2] = system: P-388 cells; experiment: Growth inhibition of P-388 cells; format: cell-based, mouse; settings: for % Inhibition / net increase in cell number: three days
Description: 2.2 Assay Against P-388 Cells (Lymphoid Neoplasm from DBA/2mouse)
as §1, with “P-388” for “L-1210”, “MEM” for “MEN”, “determination” for “determinations”, “days of incubation. A separate set of cultures within drug” for “drugs”

[3] = system: L-929 cells; experiment: Growth inhibition of L-929 cells; format: cell-based, mouse; settings: for % Inhibition / net increase in cell number: 4 days after seeding
Description: 2.3 Assay Against L-929 Cells (Mouse Areolar and Adipose Tissue)
(§2) L-929 cells were seeded into 16 mm wells at 1×10^4 cells per well in 1 mL aliquots of MEM 10C. The following day, medium was replaced with 0.5 mL aliquots of MEM 10C. The following day, the medium was replaced with 0.5 mL aliquots of MEM 10C containing the indicated concentrations of drug. All determinations were carried out in triplicate. A separate set of cultures without drug was counted daily to ensure that the cells remained in exponential growth over the period of observation. Cells were typsinized and counted 4 days after seeding.

[4] = system: B-16 cells; experiment: Growth inhibition of B-16 cells; format: cell-based, mouse; settings: for % Inhibition / net increase in cell number: 4 day after seeding
Description: 2.4 Assay Against B-16 (Mouse Melanoma)
B-16 cells were seeded into 16 mm wells at 1×10^4 cells per well in 1 mL aliquots of MEM 10C […] were carried out in triplicate. A separate set of cultures without drug was counted daily to ensure that the cells remained in exponential growth over the period for observation. Cells were typsinized and counted 4 day after seeding.

[5] = system: A-549 cells; experiment: Growth inhibition of A-549 cells; format: cell-based, human; settings: for % Inhibition / net increase in cell number: 4 days after seeding
Description: 2.5 Assay Against A-549 Cells (Human Lung Carcinoma)
as §2, with “A-549” for “L-929”, “1” for “1 mL aliquots of MEM 10C. The following day, medium was replaced with 0.5”, “trypsinated” for “typsinized”

[6] = system: HeLa cells; experiment: Growth inhibition of HeLa cells; format: cell-based, human; settings: HeLa cells in vitro
Description: 2.6 Assay Against HeLa Cells (Human Cervix Epithelioid Carcinoma)
as §2, with “HeLa” for “L-929”, “1” for “1 mL aliquots of MEM 10C. The following day, medium was replaced with 0.5”, “trypsinized” for “typsinized”

[7] = system: KB cells; experiment: Growth inhibition of KB cells; format: cell-based, human; settings: for % Inhibition / net increase in cell number: KB
[8] = system: Herpes simplex virus, type 1; experiment: Inhibition of HSV-1 replication in CV-1 cells; format: cell-based; parameters: net virus produced / % Inhibition: dose or concentration left out as unconfirmed; settings: HSV-1 in CV-1 cells; for % Inhibition / net virus produced: 24 hours after infection
Description: 2.8 Assay Against HSV-1 (Herpes Simplex Virus Type-1)
16 mm diameter wells were seeded each with 2×10^5 CV-1 cells in 1 mL aliquots of MEM 10C. Four days after, cells were infected with HSV-1 at 10C PFU per well. After adsorption for 1.5 hours, the inoculum was replaced in pairs of wells with 0.5 mL aliquots of MEM 5C containing the indicated concentrations of drug. Cells from two wells without drug were scraped into the medium and frozen 4 hours after infection to provide a baseline for calculating new virus production. The average of these samples was 2.5×10^5+1.2×10^6 PFU per mL. The remaining samples were collected 24 hours after infection.

[9] = system: CV-1 cells (monkey kidney cells); experiment: Cytotoxicity to CV-1 cells; format: cell-based
[10] = system: P-388 mouse leukemia cells; experiment: P-388 in vivo activity; settings: QD 1-9, IP
[11] = system: Lewis lung carcinoma cells; experiment: Lewis lung in vivo activity; settings: QD 1-9, IP
[12] = system: B-16 melanoma cells; experiment: B-16 melanoma in vivo activity; parameters: species or system mouse; settings: QD 1-9, IP; for B-16 Melanoma % T/C: significant activity T/C ≧ 125
[13] = Immunosuppressive / immunomodulator activity
[14] = system: murine T-cells; experiment: Growth of murine T-cells
[15] = system: murine B-cells; experiment: Growth of murine B-cells
[16] = system: murine cells; experiment: Mixed lymphocyte reaction
[17] = Montgomery et al., Transplantation, 40, 49-56 (1985); cited from earlier work
[18] = system: human lymphocytes; settings: compared with other didemnin compounds; Montgomery et al. (1987); cited from earlier work

CC[C@H](C)[C@H]1NC(=O)[C@@H](NC(=O)[C@@H](CC(C)C)N(C)C(=O)[C@@H]2CCCN2C(=O)C(C)=O)[C@@H](C)OC(=O)[C@H](Cc2ccc(OC)cc2)N(C)C(=O)[C@@H]2CCCN2C(=O)[C@H](CC(C)C)NC(=O)[C@@H](C)C(=O)[C@H](C(C)C)OC(=O)C[C@@H]1O [DDB, dehydrodidemnin B] (Pyruvoyl-P[dNMeL]T[X1]LP[NMeY](Me); ester 3-C)
% Inhibition ([1]; L-1210, 0.05 ng/mL DDB): 7% | net increase in cell number ([1]; L-1210, 0.05 ng/mL DDB): 2.7 × 10^5 | % Inhibition ([1]; L-1210, 0.1 ng/mL DDB): 7% | net increase in cell number ([1]; L-1210, 0.1 ng/mL DDB): 2.7 × 10^5 | % Inhibition ([1]; L-1210, 0.2 ng/mL DDB): 28% | net increase in cell number ([1]; L-1210, 0.2 ng/mL DDB): 2.1 × 10^5 | % Inhibition ([1]; L-1210, 0.5 ng/mL DDB): 66% | net increase in cell number ([1]; L-1210, 0.5 ng/mL DDB): 1.0 × 10^5 | % Inhibition ([1]; L-1210, 1 ng/mL DDB): 91% | net increase in cell number ([1]; L-1210, 1 ng/mL DDB): 2.5 × 10^5 | % Inhibition ([1]; L-1210, 2 ng/mL DDB): 98% | net increase in cell number ([1]; L-1210, 2 ng/mL DDB): 6.3 × 10^5 | IC50 ([1]; L-1210 cells in vitro): 0.3 ng/mL (≈ 0.27 nM) | % Inhibition ([2]; P-388, 0.12 ng/mL DDB): 29% | net increase in cell number ([2]; P-388, 0.12 ng/mL DDB): 3.97 × 10^5 | % Inhibition ([2]; P-388, 0.25 ng/mL DDB): 77% | net increase in cell number ([2]; P-388, 0.25 ng/mL DDB): 1.27 × 10^5 | % Inhibition ([2]; P-388, 0.5 ng/mL DDB): 92% | net increase in cell number ([2]; P-388, 0.5 ng/mL DDB): 4.47 × 10^5 | IC50 ([2]; P-388 cells in vitro): 0.175 ng/mL (≈ 0.158 nM) | % Inhibition ([3]; L-929, 1 ng/mL DDB): 27% | net increase in cell number ([3]; L-929, 1 ng/mL DDB): 2.31 × 10^5 | % Inhibition ([3]; L-929, 2.5 ng/mL DDB): 64% | net increase in cell number ([3]; L-929, 2.5 ng/mL DDB): 1.13 × 10^5 | % Inhibition ([3]; L-929, 5 ng/mL DDB): 84% | net increase in cell number ([3]; L-929, 5 ng/mL DDB): 5 × 10^5 | IC50 ([3]; L-929 cells in vitro): 1.9 ng/mL (≈ 1.71 nM) | % Inhibition ([4]; B-16, 0.12 ng/mL DDB): 25% | net increase in cell number ([4]; B-16, 0.12 ng/mL DDB): 1.27 × 10^5 | % Inhibition ([4]; B-16, 0.16 ng/mL DDB): 0% | net increase in cell number ([4]; B-16, 0.16 ng/mL DDB): 1.71 × 10^5 | % Inhibition ([4]; B-16, 0.25 ng/mL DDB): 54% | net increase in cell number ([4]; B-16, 0.25 ng/mL DDB): 8.25 × 10^5 | % Inhibition ([4]; B-16, 0.5 ng/mL DDB): 74% | net increase in cell number ([4]; B-16, 0.5 ng/mL DDB): 4.50 × 10^4 | % Inhibition ([4]; B-16, 1.0 ng/mL DDB): 83% | net increase in cell number ([4]; B-16, 1.0 ng/mL DDB): 2.88 × 10^4 | IC50 ([4]; B-16 cells in vitro): 0.225 ng/mL (≈ 0.203 nM) | % Inhibition ([5]; A-549, 0.25 ng/mL DDB): 41% | net increase in cell number ([5]; A-549, 0.25 ng/mL DDB): 4.80 × 10^4 | % Inhibition ([5]; A-549, 0.50 ng/mL DDB): 50% | net increase in cell number ([5]; A-549, 0.50 ng/mL DDB): 4.00 × 10^4 | % Inhibition ([5]; A-549, 1.0 ng/mL DDB): 68% | net increase in cell number ([5]; A-549, 1.0 ng/mL DDB): 2.50 × 10^4 | % Inhibition ([5]; A-549, 2.5 ng/mL DDB): 84% | net increase in cell number ([5]; A-549, 2.5 ng/mL DDB): 1.30 × 10^4 | IC50 ([5]; A-549 cells in vitro): 0.5 ng/mL (≈ 0.45 nM) | IC50 [6]: 0.5 ng/mL (≈ 0.45 nM) | IC50 ([7]; KB cells in vitro): 5.6 ng/mL (≈ 5.04 nM) | % Inhibition ([7]; 2.5 ng/mL DDB): 0% | net increase in cell number ([7]; 2.5 ng/mL DDB): 4.57 × 10^4 | % Inhibition ([7]; 5 ng/mL DDB): 46% | net increase in cell number ([7]; 5 ng/mL DDB): 2.40 × 10^4 | % Inhibition ([7]; 10 ng/mL DDB): 77% | net increase in cell number ([7]; 10 ng/mL DDB): 1.02 × 10^4 | IC50 [8]: 60 ng/mL (≈ 54 nM) | % Inhibition ([8]; 0.03 DDB): 16% | net virus produced ([8]; 0.03 DDB): 3.8 × 10^8 PFU/mL | % Inhibition ([8]; 0.1 DDB): 67% | net virus produced ([8]; 0.1 DDB): 1.5 × 10^8 PFU/mL | % Inhibition ([8]; 0.3 DDB): 96% | net virus produced ([8]; 0.3 DDB): 1.9 × 10^8 PFU/mL | % Inhibition ([8]; 1 DDB): 100% | net virus produced ([8]; 1 DDB): 0 PFU/mL | IC50 [9]: 1000 ng/mL (≈ 901 nM) | P-388, Median Survival Time ([10]; 80 μg/kg/injn): 19.5 days | P-388, Median Survival Time ([10]; 160 μg/kg/injn): 21.0 days | Lewis Lung, Mean Tumor Volume ([11]; 80 μg/kg/injn): 189 mm^3 | Lewis Lung, Mean Tumor Volume ([11]; 160 μg/kg/injn): 0 mm^3 | B-16 Melanoma Median Survival Time Days ([12]; 80 μg/kg/injn): >27.0 days | B-16 Melanoma % T/C ([12]; 80 μg/kg/injn): >158% | B-16 Melanoma Median Survival Time Days ([12]; 160 μg/kg/injn): >27.0 days | B-16 Melanoma % T/C ([12]; 160 μg/kg/injn): >158% | immunomodulator activity [13]: powerful immunomodulator | growth of murine T-cells [14]: inhibits the growth | growth of murine B-cells [15]: inhibits the growth | immune reaction in the mixed lymphocyte reaction [16]: suppresses the immune reaction of murine cells

CC[C@H](C)[C@H]1NC(=O)[C@@H](NC(=O)[C@@H](CC(C)C)N(C)C(=O)[C@@H]2CCCN2C(=O)C(C)O)[C@@H](C)OC(=O)[C@H](Cc2ccc(OC)cc2)N(C)C(=O)[C@@H]2CCCN2C(=O)[C@H](CC(C)C)NC(=O)[C@@H](C)C(=O)[C@H](C(C)C)OC(=O)C[C@@H]1O (stereo partly shown) [Didemnin B]
immunosuppressive activity [17]: potent immunosuppressive activity | inhibition of binding of prolactin to human lymphocytes [18]: more potent inhibition

— USRE39887E1, “Dehydrodidemnin B” (Pharma Mar, S.A., priority 1989, dated 2007)
